Publication PMC10778626, “Efficacy of Novel Quaternary Ammonium and Phosphonium Salts Differing in Cation Type and Alkyl Chain Length against Antibiotic-Resistant Staphylococcus aureus” (International Journal of Molecular Sciences, 2023)
Values after ≈ are worked out from the molar mass of the structure shown.

Key:
[1] = tested on: S. aureus CECT 976; parameters: method as in Abreu et al. [44]; conditions: antibiotics, broth microdilution, ref Abreu et al. [44]; cited from earlier work
[2] = tested on: HepG2 cells; assay: Cytotoxicity by neutral red (NR) uptake; format: cell-based, human; conditions: HepG2, 24 h
Procedure: The evaluation of the cytotoxicity effects of QHSs was performed using hepatocellular carcinoma (HepG2) cells. […] The cells used for all experiments were taken between the 9th and 13th passages, to avoid phenotypic changes.
The cytotoxicity profile of the compounds under study was evaluated in HepG2 cells (2.5 × 10^5 cells/mL) seeded in 96-well plates. […] Control experiments were performed for viability endpoints by adding the vehicle (medium with 0.1% DMSO) instead of the compound solution.
In the NR uptake assay, following a 24 h incubation period with the test compounds, the cell culture medium was aspirated, and fresh medium containing 150 µL of the dye (at a concentration of […]) was added to the cells. […] After incubation, the cell culture medium was discarded, and a mixture of absolute ethanol and distilled water (1:1) containing 5% acetic acid was added to extract the dye accumulated within the lysosomes of viable cells. The absorbance at 540 nm was measured using a microplate reader (Synergy HTX Multi-Mode Reader—BioTek, Winooski, VT, USA).
For all assays, results are expressed as a percentage of the control (nontreated cells), taken as 100%.

[3] = tested on: S. aureus SA1199B; conditions: antibiotics, ref Abreu et al. [44]; cited from earlier work

O=C(O)c1cn(C2CC2)c2cc(N3CCNCC3)c(F)cc2c1=O [[CIP], ciprofloxacin, reference compound]
MIC [1]: 1 µg/mL (≈ 3.02 µM) | NR uptake (lysosomal activity), % of control ([2]; 2 µg/mL): 106.7 ± 11.16% (ns) | NR uptake (lysosomal activity), % of control ([2]; 16 µg/mL): 96.82 ± 5.237% (ns) | NR uptake (lysosomal activity), % of control ([2]; 32 µg/mL): 92.35 ± 6.807% (ns) | MIC [3]: 128 µg/mL (≈ 386 µM)

CC[C@H]1OC(=O)[C@H](C)[C@@H](O[C@H]2C[C@@](C)(OC)[C@@H](O)[C@H](C)O2)[C@H](C)[C@@H](O[C@@H]2O[C@H](C)C[C@H](N(C)C)[C@H]2O)[C@](C)(O)C[C@@H](C)C(=O)[C@H](C)[C@@H](O)[C@]1(C)O [[ERY], erythromycin, reference compound]
MIC [1]: 0.24 µg/mL (≈ 0.327 µM) | NR uptake (lysosomal activity), % of control ([2]; 2 µg/mL): 108.4 ± 4.998% (ns) | NR uptake (lysosomal activity), % of control ([2]; 16 µg/mL): 107.1 ± 7.642% (ns) | NR uptake (lysosomal activity), % of control ([2]; 32 µg/mL): 110.2 ± 9.546% (ns)

CN(C)[C@@H]1C(O)=C(C(N)=O)C(=O)[C@@]2(O)C(O)=C3C(=O)c4c(O)cccc4[C@@](C)(O)[C@H]3C[C@@H]12 [[TET], tetracycline]
MIC [1]: 0.96 µg/mL (≈ 2.16 µM)
